Measured values: patent publication US7674823B2, “DNA-PK inhibitors” (Cancer Research Technology Limited, priority 2001, dated 2010)

How the values were obtained:
ATM protein [1] = molecular target: T1, ATM protein (Homo sapiens, UniProt Q13315); assay: ATM inhibition assay (immunoprecipitated ATM, GSTp53N66 substrate); assay type: biochemical
T1 construct: ATM protein was immunoprecipitated from HeLa cell nuclear extract; endogenous in cells; host or cells: HeLa cell nuclear extract (immunoprecipitate)
Protocol: (§1) In order to assess the inhibitory action of the compounds against ATM in vitro, the following assay was used to determine IC50 values.
(§2) ATM protein was immunoprecipitated from HeLa cell nuclear extract using rabbit polyclonal antisera raised to the C-terminal ˜500 amino-acid residues of the human ATM protein. The immunoprecipitation was performed according to the methodology described by Banin, S. et al. (1998) Enhanced phosphorylation of p53 by ATM in response to DNA damage. Science 281:1674-1677. 10 μl of immunoprecipitated ATM in Buffer C (50 mM Hepes, pH 7.4, 6 mM MgCl2, 150 mM NaCl, 0.1 mM sodium orthovanadate, 4 mM MnCl2, 0.1 mM dithiothreitol, 10% glycerol) was added to 32.5 μl of buffer C containing 1 μg of the ATM substrate GSTp53N66 in a V-bottomed 96 well polypropylene plate. The GSTp53N66 substrate is the amino terminal 66 amino acid residues of human wild type p53 fused to glutathione S-transferase. ATM phosphorylates p53 on the residue serine 15 (Banin, S. et al. (1998) Enhanced phosphorylation of p53 by ATM in response to DNA damage. Science 281:1674-1677). Varying concentrations of inhibitor were then added. […] After 10 minutes of incubation at 37° C., the reactions were initiated by the addition of 5 μl of 50 μM Na-ATP. After 1 h with shaking at 37° C., 150 μl of phosphate buffered saline (PBS) was added to the reaction and the plate centrifuged at 1500 rpm for 10 minutes. 5 μl of the reaction was then transferred to a 96 well opaque white plate containing 45 μl of PBS to allow the GSTp53N66 substrate to bind to the plate wells. The plate was covered and incubated at room temperature for 1 h with shaking before discarding the contents. The plate wells were washed twice by the addition of PBS prior to the addition of 3% (w/v) bovine serum albumin (BSA) in PBS. The plate was incubated at room temperature for 1 h with shaking before discarding the contents and washing twice with PBS. To the wells, 50 μl of a 1:10,000 dilution of primary phosphoserine-15 antibody (Cell Signaling Technology, #9284L) in 3% BSA/PBS was added to detect the phosphorylation event on the serine 15 residue of p53 elicited by the ATM kinase. After 1 h of incubation at room temperature with shaking, the wells were washed four times with PBS prior to the addition of an anti-rabbit HRP conjugated secondary antibody (Pierce, 31462) with shaking for 1 h at room temperature. The wells were then washed four times with PBS before the addition of chemiluminescence reagent (NEN Renaissance, NEL105). The plate was then shaken briefly, covered with a transparent plate seal and transferred to a TopCount NXT for chemiluminescent counting. Counts per second, following a one second counting time, were recorded for each reaction. The inhibition of ATM activity by compounds was calculated as described above for the DNA-PK assay.
(§3) The selectivity was determined by the following equation: […]

ATM protein [2] = assay: as above; assay type: biochemical, human; conditions: selectivity ratio from the IC50s for ATM and DNA-PK
Protocol: as §1, §2, §3

T1 sequence (Q13315 whole entry): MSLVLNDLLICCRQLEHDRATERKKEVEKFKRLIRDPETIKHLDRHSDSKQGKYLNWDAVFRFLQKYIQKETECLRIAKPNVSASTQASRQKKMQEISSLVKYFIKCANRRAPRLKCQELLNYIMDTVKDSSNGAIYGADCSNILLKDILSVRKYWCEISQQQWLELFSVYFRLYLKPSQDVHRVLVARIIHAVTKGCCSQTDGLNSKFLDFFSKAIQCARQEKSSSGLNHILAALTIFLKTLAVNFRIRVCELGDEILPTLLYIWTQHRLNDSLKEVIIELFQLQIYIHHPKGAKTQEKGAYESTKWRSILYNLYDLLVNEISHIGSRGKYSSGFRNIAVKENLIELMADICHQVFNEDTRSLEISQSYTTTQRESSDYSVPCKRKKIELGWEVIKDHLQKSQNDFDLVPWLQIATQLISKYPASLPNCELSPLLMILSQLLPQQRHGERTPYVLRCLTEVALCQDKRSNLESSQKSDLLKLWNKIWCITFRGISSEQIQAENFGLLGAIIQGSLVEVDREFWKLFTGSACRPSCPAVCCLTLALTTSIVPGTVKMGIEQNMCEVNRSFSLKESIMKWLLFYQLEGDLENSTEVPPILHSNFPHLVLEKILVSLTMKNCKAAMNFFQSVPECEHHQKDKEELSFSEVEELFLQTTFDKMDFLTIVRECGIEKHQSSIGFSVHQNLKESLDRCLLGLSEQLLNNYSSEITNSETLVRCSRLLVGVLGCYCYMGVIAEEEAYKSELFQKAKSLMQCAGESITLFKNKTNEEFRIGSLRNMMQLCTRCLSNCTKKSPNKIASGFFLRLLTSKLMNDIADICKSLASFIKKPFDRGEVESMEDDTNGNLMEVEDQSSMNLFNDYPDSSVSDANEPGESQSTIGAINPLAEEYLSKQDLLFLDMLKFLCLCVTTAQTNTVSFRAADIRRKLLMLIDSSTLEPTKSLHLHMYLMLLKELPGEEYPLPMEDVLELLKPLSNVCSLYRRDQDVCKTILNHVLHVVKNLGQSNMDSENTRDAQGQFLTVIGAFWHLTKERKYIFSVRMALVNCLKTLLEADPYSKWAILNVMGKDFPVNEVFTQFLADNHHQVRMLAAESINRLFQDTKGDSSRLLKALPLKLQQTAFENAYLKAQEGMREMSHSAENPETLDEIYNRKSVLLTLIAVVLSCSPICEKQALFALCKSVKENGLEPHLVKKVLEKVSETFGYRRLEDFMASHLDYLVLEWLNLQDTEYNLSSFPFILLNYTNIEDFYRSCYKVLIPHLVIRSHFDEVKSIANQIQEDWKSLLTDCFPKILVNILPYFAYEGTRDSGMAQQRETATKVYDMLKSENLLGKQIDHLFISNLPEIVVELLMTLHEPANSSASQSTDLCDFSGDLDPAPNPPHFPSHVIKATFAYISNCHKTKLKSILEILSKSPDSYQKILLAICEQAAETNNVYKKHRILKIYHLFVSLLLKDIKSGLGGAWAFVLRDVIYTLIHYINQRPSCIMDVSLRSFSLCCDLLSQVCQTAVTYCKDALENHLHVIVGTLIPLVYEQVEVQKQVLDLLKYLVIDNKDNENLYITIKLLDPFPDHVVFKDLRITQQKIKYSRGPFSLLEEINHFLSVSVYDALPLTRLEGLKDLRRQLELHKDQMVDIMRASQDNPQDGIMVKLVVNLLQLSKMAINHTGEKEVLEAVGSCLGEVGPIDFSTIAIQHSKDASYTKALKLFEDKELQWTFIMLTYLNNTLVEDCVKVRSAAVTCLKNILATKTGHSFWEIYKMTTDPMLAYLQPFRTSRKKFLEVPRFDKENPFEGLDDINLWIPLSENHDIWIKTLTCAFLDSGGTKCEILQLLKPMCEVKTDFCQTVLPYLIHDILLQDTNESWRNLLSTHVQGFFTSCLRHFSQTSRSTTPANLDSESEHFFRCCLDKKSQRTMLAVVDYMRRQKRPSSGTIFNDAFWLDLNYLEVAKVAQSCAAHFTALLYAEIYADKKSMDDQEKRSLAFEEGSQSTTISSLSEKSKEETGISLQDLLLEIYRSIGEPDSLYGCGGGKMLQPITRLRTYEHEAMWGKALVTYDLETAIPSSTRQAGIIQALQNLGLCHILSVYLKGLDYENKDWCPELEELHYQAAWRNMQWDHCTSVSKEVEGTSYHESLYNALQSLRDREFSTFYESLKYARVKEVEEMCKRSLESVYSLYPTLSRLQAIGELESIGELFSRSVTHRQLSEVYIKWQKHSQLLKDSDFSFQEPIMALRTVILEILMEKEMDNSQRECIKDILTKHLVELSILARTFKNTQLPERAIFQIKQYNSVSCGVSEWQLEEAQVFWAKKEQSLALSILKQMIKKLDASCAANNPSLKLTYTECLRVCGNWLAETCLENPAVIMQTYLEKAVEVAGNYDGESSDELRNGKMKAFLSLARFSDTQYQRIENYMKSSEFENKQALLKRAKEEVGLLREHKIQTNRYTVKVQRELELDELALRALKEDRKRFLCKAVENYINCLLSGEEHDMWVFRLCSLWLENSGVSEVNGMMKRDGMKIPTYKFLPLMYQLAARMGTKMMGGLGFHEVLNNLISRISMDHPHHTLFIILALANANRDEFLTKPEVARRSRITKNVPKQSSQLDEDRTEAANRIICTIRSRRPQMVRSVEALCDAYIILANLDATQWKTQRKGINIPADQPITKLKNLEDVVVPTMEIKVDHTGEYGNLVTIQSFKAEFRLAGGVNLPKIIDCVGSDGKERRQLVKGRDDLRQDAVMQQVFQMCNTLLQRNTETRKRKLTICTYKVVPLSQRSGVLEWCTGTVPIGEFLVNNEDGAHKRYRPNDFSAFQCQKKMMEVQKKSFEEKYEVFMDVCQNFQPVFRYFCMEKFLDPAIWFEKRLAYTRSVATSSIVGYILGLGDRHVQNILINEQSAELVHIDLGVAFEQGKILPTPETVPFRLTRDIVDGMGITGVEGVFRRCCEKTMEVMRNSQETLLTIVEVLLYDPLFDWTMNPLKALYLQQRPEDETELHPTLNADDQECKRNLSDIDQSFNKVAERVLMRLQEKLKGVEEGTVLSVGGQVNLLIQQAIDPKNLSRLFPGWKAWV

Compound	IC50 (ATM protein [1])	Δ(DNA-PK/ATM) (ATM protein [2])
O=c1cc(N2CCOCC2)oc2c3c(ccc12)CCCC3 [Compound 297, 7,8,9,10-tetrahydro-benzo[h]-2-(morpholin-4-yl)-chromen-4-one]	45 µM	90
CC1CN(c2cc(=O)c3ccc4ccccc4c3o2)CCO1 (stereo not drawn) [Compound 317, 2-(2-Methyl-morpholin-4-yl)-benzo[h]chromen-4-one]	> 100 µM	>333
O=C1c2ccccc2C(=O)N1CCCOc1ccc2c(=O)cc(N3CCOCC3)oc2c1 [Compound 422, N-[3-(2-(Morpholin-4-yl)-4-oxo-4H-chromen-7-yloxy)-propyl]-phthalimide]	> 100 µM	>200
